Data reported in US10399944B2, “Pyridin-2-one derivatives of formula (III) useful as EP3 receptor antagonists” (Janssen Pharmaceutica NV, priority 2017, dated 2019).

Experiments:
EP3 receptor [1] = target: T1, EP3 receptor (Homo sapiens, UniProt P43115); assay: [3H]-PGE2 binding assay (EP3 competition binding, SPA beads)
T1 sequence (P43115 1-390): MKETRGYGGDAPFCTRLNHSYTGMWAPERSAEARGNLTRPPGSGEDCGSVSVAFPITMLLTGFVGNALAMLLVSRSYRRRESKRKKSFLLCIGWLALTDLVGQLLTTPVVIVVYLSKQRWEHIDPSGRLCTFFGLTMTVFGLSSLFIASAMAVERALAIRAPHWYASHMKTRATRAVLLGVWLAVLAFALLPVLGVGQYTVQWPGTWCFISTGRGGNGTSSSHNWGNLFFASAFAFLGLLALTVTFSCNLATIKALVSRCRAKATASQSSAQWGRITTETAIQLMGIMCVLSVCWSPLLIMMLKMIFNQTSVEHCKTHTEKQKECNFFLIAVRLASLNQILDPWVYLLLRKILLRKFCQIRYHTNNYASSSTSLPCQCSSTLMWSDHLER

EP3 receptor [2] = target: T1, EP3 receptor; assay: CHO cell cAMP assay (forskolin and sulprostone stimulated, HTRF detection); type: cell-based; details: sulprostone 700 nM (EC80) and FSK 2 μM (EC70); read-out: CHO_cAMP IC50
male Sprague Dawley rats = assay: IV infused EP3 antagonists on circulating insulin and glucose in the sulprostone infusion IVGTT model; type: in vivo, rat; details: IV bolus plus infusion at 7×Ki and 10×Ki (targeted), with 3 μg/kg/min sulprostone, SD rats
Description: IV Infused EP3 Antagonists on Circulating Insulin and Glucose in the Sulprostone Infusion IVGTT Model
Jugular vein and carotid artery cannulated male Sprague Dawley rats (˜250 g, available from Charles River) were housed one rat per suspended cage in a temperature-controlled room with 12-hour light/dark cycle. The rats were allowed ad libitum access to water and maintained on a regular diet. Animals were acclimated for minimum 5 days prior to the start of the experiment. Experimental procedures were carried out in accordance with institutional standards for animal care and were approved by the institute's animal care and use committee.
A blood sample for insulin and blood chemistry was collected at 20 min (t=−20) prior to the start of dosing with sulprostone and/or test compound (EP3 antagonist). […]
Blood samples from all animals were collected into Heparin treated tubes. Background was measured via a glucometer at the 0 and 2 min time points to ensure that the animal received the glucose bolus. Plasma insulin was measured via a Meso Scale Discovery metabolic assay (available from Meso Scale). Plasma glucose, free fatty acid (FFA), triglycerides, cholesterol and ketones were measured on an OLYMPUS AU400E chemistry analyzer. Observations on animal health were recorded throughout the procedure. […]

mEP3 = target: T2, mEP3 (Mus musculus, UniProt P30557); assay: mEP3 Ki used for dose targeting in the IVGTT model; type: binding
T2 sequence (P30557 1-365): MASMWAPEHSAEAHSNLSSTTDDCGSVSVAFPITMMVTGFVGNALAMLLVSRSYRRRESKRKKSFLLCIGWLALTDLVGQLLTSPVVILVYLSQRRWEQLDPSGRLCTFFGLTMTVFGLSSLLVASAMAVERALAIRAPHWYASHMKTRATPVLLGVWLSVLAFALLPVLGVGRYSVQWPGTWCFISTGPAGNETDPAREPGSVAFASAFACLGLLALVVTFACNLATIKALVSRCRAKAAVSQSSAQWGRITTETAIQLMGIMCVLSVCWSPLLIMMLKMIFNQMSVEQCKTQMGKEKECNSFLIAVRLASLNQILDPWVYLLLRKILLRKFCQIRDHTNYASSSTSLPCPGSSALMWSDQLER

CCn1ncc2c(F)cc(-c3ccc(C(/C=C4\OC(=O)NC4=O)C4CCCCC4)c(=O)[nH]3)cc21 (stereo not drawn) [Compound #127, 5-(2-cyclohexyl-2-(6-(1-ethyl-4-fluoro-1H-indazol-6-yl)-2-oxo-1,2-dihydropyridin-3-yl)ethylidene) oxazolidine-2,4-dione]
Ki (EP3 receptor [1]): 46 nM
IC50 (EP3 receptor [2]): 548 nM

CC(C)[C@@H](c1ccc(-c2ccc3cccc(F)c3c2)[nH]c1=O)[C@H]1OC(=O)NC1=O (relative stereo) [Compound #59]
Ki (EP3 receptor [1]): 85 nM
IC50 (EP3 receptor [2]): 611 nM

CCn1ncc2c(F)cc(-c3ccc(C(/C=C4\OC(=O)NC4=O)C(C)C)c(=O)[nH]3)cc21 (racemic) [Compound #94, 5-(2-(6-(1-ethyl-4-fluoro-1H-indazol-6-yl)-2-oxo-1,2-dihydropyridin-3-yl)-3-methylbutylidene)-oxazolidine-2,4-dione]
Ki (EP3 receptor [1]): 20 nM
IC50 (EP3 receptor [2]): 181 nM

CC(C)[C@H](C[C@@H]1OC(=O)NC1=O)c1ccc(-c2ccc3cccc(F)c3c2)[nH]c1=O (relative stereo) [Compound #81]
Ki (EP3 receptor [1]): 6 nM
IC50 (EP3 receptor [2]): 15 nM

CCn1cc2c(F)c(-c3ccc(C(/C=C4/OC(=O)NC4=O)(CC)CC)c(=O)[nH]3)ccc2n1 [Compound #14]
Ki (EP3 receptor [1]): > 10000 nM
IC50 (EP3 receptor [2]): > 20000 nM

O=C1NC(=O)[C@]2(CCC[C@H](c3ccc(-c4ccc5ccccc5c4)[nH]c3=O)C2)O1 [Compound #189, Syn-7-(6-(naphthalen-2-yl)-2-oxo-1,2-dihydropyridin-3-yl)-1-oxa-3-azaspiro[4.5]decane-2,4-dione]
Ki (EP3 receptor [1]): 16 nM
IC50 (EP3 receptor [2]): 109 nM

CCn1cnc2c(F)c(-c3ccc(C(C=C4OC(=O)NC4=O)C(C)C)c(=O)[nH]3)ccc21 (stereo not drawn) [Compound #90, 5-(2-(6-(1-ethyl-4-fluoro-1H-benzo[d]imidazol-5-yl)-2-oxo-1,2-dihydropyridin-3-yl)-3-methylbutyli-dene)oxazolidine-2,4-dione]
Ki (EP3 receptor [1]): 633 nM
IC50 (EP3 receptor [2]): 5430 nM

O=C1NC(=O)C2(CCCC(c3ccc(-c4ccc5ccccc5c4)[nH]c3=O)C2)O1 (stereo not drawn) [compound 188, anti-7-(6-(naphthalen-2-yl)-2-oxo-1,2-dihydropyridin-3-yl)-1-oxa-3-azaspiro[4.5]decane-2,4-dione]
Ki (EP3 receptor [1]): 15 nM
IC50 (EP3 receptor [2]): 120 nM

CC(C)C(c1ccc(-c2ccc3cccc(F)c3c2)[nH]c1=O)C1OC(=O)NC1=O (stereo not drawn) [compound 60]
Ki (EP3 receptor [1]): 27 nM
IC50 (EP3 receptor [2]): 92 nM

CCn1ncc2c(F)cc(-c3ccc([C@]4(O)CC[C@H]5C[C@@H]4NC5=O)c(=O)[nH]3)cc21 (stereo in doubt) [Compound #300, 4-(6-(1-ethyl-4-fluoro-1H-indazol-6-yl)-2-oxo-1,2-dihydropyridin-3-yl)-4-hydroxy-6-azabicyclo[3.2.1]octan-7-one]
Ki (EP3 receptor [1]): 5 nM

CC(C)C(/C=C1\OC(=O)NC1=O)c1ccc(-c2ccc3c(c2)OCCO3)[nH]c1=O (racemic) [Compound #85, (Z)-5-(2-(6-(2,3-dihydrobenzo[b][1,4]dioxin-6-yl)-2-oxo-2,3-dihydropyridin-3-yl)-3-methylbutylidene)oxazolidine-2,4-dione]
Ki (EP3 receptor [1]): 44 nM
IC50 (EP3 receptor [2]): 122 nM

CC(C)C(/C=C1\OC(=O)NC1=O)c1ccc(-c2ccc3cccc(F)c3c2)[nH]c1=O (racemic) [Compound #62, (Z)-5-(2-(6-(8-fluoronaphthalen-2-yl)-2-oxo-1,2-dihydropyridin-3-yl)-3-methylbutylidene)oxazolidine-2,4-dione]
suppression of glucose stimulate insulin secretion (GSIS) by sulprostone (male Sprague Dawley rats): reverse suppression of glucose stimulate insulin secretion (GSIS) by sulprostone
Ki (mEP3): 8.6 nM

CCn1ncc2c(F)cc(-c3[nH]c(=O)c(C(/C=C4\OC(=O)NC4=O)C(C)C)cc3Cl)cc21 (racemic) [Compound #125, 5-(2-(5-chloro-6-(1-ethyl-4-fluoro-1H-indazol-6-yl)-2-oxo-1,2-dihydropyridin-3-yl)-3-methylbutylidene) oxazolidine-2,4-dione]
Ki (EP3 receptor [1]): 487 nM
IC50 (EP3 receptor [2]): 658 nM

CC(C)C(/C=C1\OC(=O)NC1=O)c1ccc(-c2ccc3cnsc3c2)[nH]c1=O (stereo not drawn) [Compound #93]
Ki (EP3 receptor [1]): 1070 nM
IC50 (EP3 receptor [2]): 9940 nM

CCN1CCOc2ccc(-c3ccc(C(/C=C4\OC(=O)NC4=O)C(C)C)c(=O)[nH]3)cc21 (stereo not drawn) [Compound #137]
Ki (EP3 receptor [1]): 54 nM
IC50 (EP3 receptor [2]): 218 nM

CCN1CCOc2cc(-c3ccc(C(/C=C4\OC(=O)NC4=O)C(C)C)c(=O)[nH]3)ccc21 (stereo not drawn) [Compound #121]
Ki (EP3 receptor [1]): 73 nM
IC50 (EP3 receptor [2]): 363 nM

CC(C)(C)C(/C=C1/OC(=O)NC1=O)C1C=CC(c2ccc3cccc(F)c3c2)=NC1=O (mixture of isomers) [compound 275, (E)-5-(2-(6-(8-fluoronaphthalen-2-yl)-2-oxo-2,3-dihydropyridin-3-yl)-3,3-dimethylbutylidene)oxazolidine-2,4-dione]
IC50 (EP3 receptor [2]): > 20000 nM

CC(C)C(CC1OC(=O)NC1=O)c1ccc(-c2ccc3cccc(F)c3c2)[nH]c1=O (stereo not drawn) [compound 74]
Ki (EP3 receptor [1]): 8 nM
IC50 (EP3 receptor [2]): 27 nM

CC(=C1OC(=O)NC1=O)C(c1ccc(-c2ccc3cccc(F)c3c2)[nH]c1=O)C(C)C (stereo not drawn) [Compound 96]
Ki (EP3 receptor [1]): 17 nM
IC50 (EP3 receptor [2]): 39 nM

O=C1NC(=O)/C(=C\C2(c3ccc(-c4ccc5cccc(F)c5c4)[nH]c3=O)CC2)O1 [Compound #11]
Ki (EP3 receptor [1]): 28 nM
IC50 (EP3 receptor [2]): 55 nM

CC(C)C1(c2ccc(-c3ccc4cccc(F)c4c3)[nH]c2=O)C(=O)Nc2nncn21 (stereo not drawn) [Compound #156]
Ki (EP3 receptor [1]): 57 nM
IC50 (EP3 receptor [2]): 508 nM

CC(C)C(/C=C1\OC(=O)NC1=O)c1ccc(-c2ccc3c(c2)OC(F)(F)O3)[nH]c1=O (racemic) [Compound #276, (Z)-5-(2-(6-(2,2-difluorobenzo[d][1,3]dioxol-5-yl)-2-oxo-2,3-dihydropyridin-3-yl)-3-methylbutylidene)oxazolidine-2,4-dione]
Ki (EP3 receptor [1]): 5650 nM
IC50 (EP3 receptor [2]): 7600 nM
